Test [1] in a line: general mammalian cell viability loss – inhibitor set, cherry-pick, set 2, cytotoxicity control for miR-122 modulator project, dose response (AID 720697). The test is classed as functional, cell-based.
Test [2] concerns the target T1, DNA repair protein RAD52 homolog (Homo sapiens, UniProt P43351).
T1 sequence (P43351 whole entry): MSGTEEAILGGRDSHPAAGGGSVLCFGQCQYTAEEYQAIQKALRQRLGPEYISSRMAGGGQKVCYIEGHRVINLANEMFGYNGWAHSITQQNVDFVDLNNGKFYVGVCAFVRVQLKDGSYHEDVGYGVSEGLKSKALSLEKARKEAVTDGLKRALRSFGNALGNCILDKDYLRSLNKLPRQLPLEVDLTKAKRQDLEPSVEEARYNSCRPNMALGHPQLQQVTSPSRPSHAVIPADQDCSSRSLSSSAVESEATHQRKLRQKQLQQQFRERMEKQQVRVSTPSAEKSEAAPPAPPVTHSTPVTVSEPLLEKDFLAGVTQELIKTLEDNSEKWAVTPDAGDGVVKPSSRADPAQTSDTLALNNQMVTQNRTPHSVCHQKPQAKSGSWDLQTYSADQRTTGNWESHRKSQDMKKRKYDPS
The test is classed as functional, biochemical.

The target of test [3] is T2, DNA repair and recombination protein RAD54-like (Homo sapiens, UniProt Q92698).
T2 sequence (Q92698 whole entry): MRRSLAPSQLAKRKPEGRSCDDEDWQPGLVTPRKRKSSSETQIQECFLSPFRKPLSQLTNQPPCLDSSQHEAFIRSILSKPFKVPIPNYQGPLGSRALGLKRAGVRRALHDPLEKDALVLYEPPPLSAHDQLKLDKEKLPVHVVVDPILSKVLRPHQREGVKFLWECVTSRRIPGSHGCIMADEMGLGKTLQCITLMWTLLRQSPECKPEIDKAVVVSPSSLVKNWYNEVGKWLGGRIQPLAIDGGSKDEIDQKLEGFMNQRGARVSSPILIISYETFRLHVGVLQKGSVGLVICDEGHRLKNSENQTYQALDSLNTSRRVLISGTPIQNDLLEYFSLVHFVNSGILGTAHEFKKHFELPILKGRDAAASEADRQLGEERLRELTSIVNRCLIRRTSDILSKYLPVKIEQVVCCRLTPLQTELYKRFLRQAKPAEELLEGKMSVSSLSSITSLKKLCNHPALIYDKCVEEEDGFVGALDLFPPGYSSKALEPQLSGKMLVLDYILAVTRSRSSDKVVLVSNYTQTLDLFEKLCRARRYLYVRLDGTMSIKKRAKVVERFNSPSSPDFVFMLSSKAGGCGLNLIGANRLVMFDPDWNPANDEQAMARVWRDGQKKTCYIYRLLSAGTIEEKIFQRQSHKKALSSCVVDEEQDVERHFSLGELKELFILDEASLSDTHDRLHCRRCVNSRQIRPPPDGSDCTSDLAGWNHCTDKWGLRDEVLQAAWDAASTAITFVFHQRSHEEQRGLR
The test can be described thus: RAD54 Holliday junction migration blockers – biochemical, fluorescence, cherry-picked samples, dose series, confirmation (AID 651657). It counts as functional.

The target of test [4] is SWI/SNF-related matrix-associated actin-dependent regulator of chromatin subfamily A member 2 (Homo sapiens, UniProt P51531). The test can be described thus: Luminescence-based cell-based high throughput dose response assay to identify activators of the function of SWI/SNF related, matrix associated, actin dependent regulator of chromatin, subfamily a, member 2 (SMARCA2, BRM). The test is classed as functional.
SWI/SNF-related matrix-associated actin-dependent regulator of chromatin subfamily A member 2, sequence (P51531 whole entry): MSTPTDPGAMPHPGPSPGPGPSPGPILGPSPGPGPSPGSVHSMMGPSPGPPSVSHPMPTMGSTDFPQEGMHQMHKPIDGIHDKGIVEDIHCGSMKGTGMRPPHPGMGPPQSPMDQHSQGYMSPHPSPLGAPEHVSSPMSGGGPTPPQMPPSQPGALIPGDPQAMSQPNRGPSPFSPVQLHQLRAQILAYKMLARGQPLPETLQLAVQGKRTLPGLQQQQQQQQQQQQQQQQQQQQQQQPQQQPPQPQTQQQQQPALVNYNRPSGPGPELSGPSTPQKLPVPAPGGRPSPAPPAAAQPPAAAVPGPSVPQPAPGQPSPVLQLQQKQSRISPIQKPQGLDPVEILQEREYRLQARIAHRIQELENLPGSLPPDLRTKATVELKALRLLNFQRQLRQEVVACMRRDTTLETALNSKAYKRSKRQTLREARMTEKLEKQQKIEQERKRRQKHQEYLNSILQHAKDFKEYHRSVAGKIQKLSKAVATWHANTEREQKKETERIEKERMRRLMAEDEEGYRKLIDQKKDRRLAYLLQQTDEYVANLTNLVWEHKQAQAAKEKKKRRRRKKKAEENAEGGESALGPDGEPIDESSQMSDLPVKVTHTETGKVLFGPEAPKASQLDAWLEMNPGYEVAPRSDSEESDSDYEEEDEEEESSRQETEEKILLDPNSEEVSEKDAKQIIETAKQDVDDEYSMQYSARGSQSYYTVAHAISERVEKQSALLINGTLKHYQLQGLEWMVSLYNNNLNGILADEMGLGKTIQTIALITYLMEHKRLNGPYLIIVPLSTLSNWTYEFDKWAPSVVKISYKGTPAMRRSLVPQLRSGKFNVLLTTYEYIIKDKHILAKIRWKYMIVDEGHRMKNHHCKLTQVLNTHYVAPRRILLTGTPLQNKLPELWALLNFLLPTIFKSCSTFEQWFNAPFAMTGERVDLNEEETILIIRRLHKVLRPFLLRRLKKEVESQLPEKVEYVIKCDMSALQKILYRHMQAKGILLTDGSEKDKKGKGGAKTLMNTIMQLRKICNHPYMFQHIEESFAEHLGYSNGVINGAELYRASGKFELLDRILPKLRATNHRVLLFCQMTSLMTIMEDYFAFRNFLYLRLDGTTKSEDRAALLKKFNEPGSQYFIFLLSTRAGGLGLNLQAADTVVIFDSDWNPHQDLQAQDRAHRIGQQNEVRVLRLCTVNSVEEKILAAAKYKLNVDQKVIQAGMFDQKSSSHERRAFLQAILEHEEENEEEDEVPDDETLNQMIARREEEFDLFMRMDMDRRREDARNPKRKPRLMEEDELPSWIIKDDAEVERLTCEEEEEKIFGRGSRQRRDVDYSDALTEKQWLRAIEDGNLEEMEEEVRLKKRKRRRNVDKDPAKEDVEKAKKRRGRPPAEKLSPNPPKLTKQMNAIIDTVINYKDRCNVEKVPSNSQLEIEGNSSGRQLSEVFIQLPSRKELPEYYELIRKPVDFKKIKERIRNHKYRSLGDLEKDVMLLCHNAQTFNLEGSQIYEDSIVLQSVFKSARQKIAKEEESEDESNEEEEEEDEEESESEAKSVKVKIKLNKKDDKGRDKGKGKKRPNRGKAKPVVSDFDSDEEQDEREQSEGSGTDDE

A short description of test [5]: Counterscreen for activators of the function of SWI/SNF related, matrix associated, actin dependent regulator of chromatin, subfamily a, member 2 (SMARCA2, BRM): Luminescence-based cell-based high throughput dose response assay to identify non-selective compounds using the VP16 reporter assay. The test is classed as functional.
Test [6] is described as follows: activation of miR-122 Renilla sensor silencing – cell-based, Huh7 psiCHECK-miR122, Renilla luciferase, cherry-picked, dose response (AID 651956).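 Also: huh7 hepatoma cells stably carrying a psiCHECK-2 miR-122 sensor plasmid; renilla luciferase signal reporting endogenous miR-122 activity after 48 h compound exposure.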 It counts as functional.
The nature of test [7]: general mammalian cell viability loss – activator set, cherry-pick, cytotoxicity control for miR-122 modulator project, dose response (AID 720690).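 Also: HEK293T human cells scored for general mammalian cytotoxicity.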 It counts as functional, cell-based.
The nature of test [8]: Luminescence Cell-Based Dose Response HTS to Identify Inhibitors of 5'UTR Stem-Loop Driven Prion Protein mRNA Translation in H4 Neuroglioblastoma Cells. [Related pubchem assays: 1827 (Project Summary), 1813 (Primary HTS)]. It counts as functional.
For test [9], the target named is T3, Heat shock factor protein 1 (Mus musculus, UniProt P38532).
T3 sequence (P38532 whole entry): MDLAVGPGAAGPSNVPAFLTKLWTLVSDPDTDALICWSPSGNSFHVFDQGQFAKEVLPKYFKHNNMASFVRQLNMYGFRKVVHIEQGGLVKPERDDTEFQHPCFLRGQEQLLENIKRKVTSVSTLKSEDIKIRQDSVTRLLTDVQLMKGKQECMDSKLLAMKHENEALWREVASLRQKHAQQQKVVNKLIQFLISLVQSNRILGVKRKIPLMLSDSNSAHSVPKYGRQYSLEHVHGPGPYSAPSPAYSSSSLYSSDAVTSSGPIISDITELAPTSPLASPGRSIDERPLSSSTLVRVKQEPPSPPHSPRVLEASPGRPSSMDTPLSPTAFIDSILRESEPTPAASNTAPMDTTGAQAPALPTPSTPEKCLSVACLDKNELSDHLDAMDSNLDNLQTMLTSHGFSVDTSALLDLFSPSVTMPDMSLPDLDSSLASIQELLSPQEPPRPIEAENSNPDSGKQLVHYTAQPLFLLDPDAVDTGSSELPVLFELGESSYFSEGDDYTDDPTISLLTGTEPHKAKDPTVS
The test is described as follows: decrease of HSF1-responsive luciferase luminescence – cell-based, NIH3T3, dose retest, confirmation (AID 2382).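 Also: NIH3T3 fibroblasts with HSF1-driven luciferase reporter stressed by proteasome inhibitor MG132; luminescence from HSF1-driven luciferase expression after 8 hours of MG132 stress.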 The test is classed as functional.

Test [10] in a line: alpha-synuclein stem-loop luciferase translation blockers – H4 neuroglioma cells, luminescence, confirmation (AID 1988). It counts as functional, cell-based.
Test [11] can be described thus: A549 cell cytotoxicity, dose response, cytotoxicity control, plate reader, cherry-pick, antagonist series (AID 743412). The test is classed as functional, cell-based.
A short description of test [12]: toxicity toward HepG2 liver cells – cell-based, plate reader, cherry-pick, antagonist series, cytotoxicity control, dose response (AID 743416). The test is classed as functional.
Test [13] is described as follows: blockers of bursicon-stimulated LGR2 cAMP reporter – cell-based, HEK293, CRE-luciferase reporter, cherry pick, set 2, dose response (AID 743343).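 Also: transfected cells were stimulated with diluted bursicon conditioned medium after compound addition.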 The test is classed as functional. On the technique in general: In a reporter assay the amount or activity of a reporter protein is the signal.
Test [14] in a line: blockade of melanocortin 4 receptor signaling – cell-based, plate reader, cherry pick, counter-screen for LGR2 antagonist project, dose response (AID 743444).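 Also: transfected HEK 293 cells stimulated with alpha-MSH peptide; potency of inhibitors of the alpha-MSH evoked signal.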 It counts as functional. For orientation: The purpose of a counterscreen is to sort out artefacts and off-target activity.
Test [15] is described as follows: viability loss in HEK293 cells – cell-based, plate reader, cherry-picked samples, cytotoxicity control, dose response (AID 743446). It counts as functional.
Test [16] in a line: cells. It counts as functional, cell-based.
Test [17] deals with T4, Trace amine-associated receptor 1 (Homo sapiens, UniProt Q96RJ0).
T4 sequence (Q96RJ0 whole entry): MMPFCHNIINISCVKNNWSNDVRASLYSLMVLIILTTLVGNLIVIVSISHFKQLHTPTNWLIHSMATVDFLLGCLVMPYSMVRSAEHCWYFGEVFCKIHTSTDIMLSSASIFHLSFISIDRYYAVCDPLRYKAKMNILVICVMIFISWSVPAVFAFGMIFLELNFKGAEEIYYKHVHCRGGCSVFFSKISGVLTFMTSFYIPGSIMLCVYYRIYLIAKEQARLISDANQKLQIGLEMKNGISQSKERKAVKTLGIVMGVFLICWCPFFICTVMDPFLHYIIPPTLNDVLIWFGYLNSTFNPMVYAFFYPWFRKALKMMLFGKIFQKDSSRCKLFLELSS
The test is described as follows: Fluorescence-based cell-based high throughput dose response assay to identify agonists of the human trace amine associated receptor 1 (TAAR1). The test is classed as functional.

Test [18] addresses T4, Trace amine-associated receptor 1. The test is described as follows: Counterscreen for agonists of the human trace amine associated receptor 1 (hTAAR1): Fluorescence-based cell-based high throughput dose response assay to identify hTAAR1 agonist that also desensitize TAAR1 receptor response. The test is classed as functional.
The nature of test [19]: cells. The test is classed as functional, cell-based. This is another data set of the same source.
The nature of test [20]: potency of ADAM10 substrate cleavage blockers – biochemical, QFRET, dose response (AID 743254).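 Also: ADAM10 enzyme with the DM2 quenched FRET peptide as substrate; EDANS fluorescence gain as the protease cuts the substrate; inhibitor potency against ADAM10 proteolytic activity.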

The structures appear in SMILES notation. Activity calls are given as the source filed them.

`CCNC(=O)C[C@H]1CC[C@@H]2[C@@H](COc3ccc(NC(=O)c4cccc(C(F)(F)F)c4)cc3C(=O)N2C)O1`: the AC50 (commonly the concentration giving half of the maximal activity seen) in [1] is 469 nM (active).

`N=C(N)NCCC[C@@H]1NC(=O)c2cc([N+](=O)[O-])cc(F)c2NCCCC[C@@H](C(N)=O)NC(=O)CNC1=O`: the AC50 in test [2] was 14.8 µM (active).

As for `COc1ccc(C)c2sc(N(CCN(C)C)C(=O)c3ccc4ccccc4c3)nc12`, the concentration at half-maximal activity (AC50) was 79.4 µM (active) in test [3] and 14.1 µM (active) in test [2].

As to `Clc1ccc(-c2nc3ccc(Cl)cn3c2Cc2ccsc2)cc1`, the EC50 in [4] and in test [5] was > 91.2 µM (inactive) throughout.

`O=C(CSc1nnc2ccccn12)Nc1ncc(Cl)cc1Cl`: the EC50 in test [4] and in [5] was > 91.2 µM (inactive) throughout.

Consider `CN1C(=O)c2cc(NC(=O)c3ccc(C(F)(F)F)cc3)ccc2OC[C@@H]2O[C@@H](CC(=O)NCc3ccc4c(c3)OCO4)CC[C@@H]21`, for which the AC50 in test [6] is 13.8 µM (active); in test [7], 23.8 µM (active).

As for `Cc1ccc(-c2nc(-c3ccccc3)no2)c(Cl)c1`, the values for the EC50 in test [8], in test [9] and in test [10] were 8.33 µM (active), < 160 nM (active) and 9.82 µM (inconclusive), respectively. The AC50 was > 52 µM (inactive) in test [11]; > 52 µM (inactive) in test [12]; 842 nM (active) in test [13]; 1.26 µM (active) in [14]; 39.7 µM (active) in test [15].

For the compound `O=C(c1ccco1)N1CCN(C2CC(=O)N(c3ccccc3)C2=O)CC1` (configuration not stated), the AC50 in test [1] was 5020 nM (active).

Regarding `O=C(NCCc1ccccc1Cl)[C@@H]1CCCN1C(=O)[C@@H](NC(=O)N1CCOCC1)C1CCCCC1`, the figures for the IC50 (in “cells [16]”; in [18]) were > 29.9 µM (inactive) and 6.35 µM (active), respectively. The concentration for a half-maximal effect (EC50) (as a rule, the midpoint of the concentration-response curve) in [17] is 5.36 µM (active); in the test “cells [19]”, > 29.9 µM (inactive).

Regarding `O=C(NCCc1ccccc1)C(=O)NCC1OCCN1S(=O)(=O)c1ccccc1` (configuration not stated), the figures for the IC50 (in “cells [16]”; in test [18]) were > 29.9 µM (inactive) and 11.8 µM (inactive), respectively. Besides, the results for the concentration giving a half-maximal response (EC50) (in [17]; in the test “cells [19]”) were 5.39 µM (active) and > 29.9 µM (inactive), respectively.

For `Cc1ccc(C(S)=NCS(=O)(=O)c2ccc(C)cc2)cc1`, the IC50 (usually the midpoint of a concentration-inhibition curve) in test [20] is 5.2 µM (active).

Take `COc1ccccc1CCNCc1ccc(OC)c(OC)c1OC`: the IC50 in “cells [16]” is > 29.9 µM (inactive); in test [18] it was 10.5 µM (inactive). Moreover, the concentration for a half-maximal effect (EC50) in test [17] was 2.37 µM (active); in “cells [19]”, > 29.9 µM (inactive).

With `Nc1c(C(=O)N2CCOCC2)sc2nc3c(cc12)CCCC3`, the AC50 in test [11] was > 52 µM (inactive); in [12], > 52 µM (inactive); in test [13] it was 2380 nM (active); in test [14], 3.2 µM (active); in [15] it was > 52 µM (inactive).

The values are drawn from ChEMBL document CHEMBL1201862, “PubChem BioAssay data set” (2004).
